Like-named read-outs stand apart in the source and are kept apart here.
How the values were obtained:
HSV-polymerase = HSV-polymerase (Human herpesvirus 1 (strain 17) (HHV-1) (Human herpes simplex virus 1), UniProt P04293); experiment: biochemical
CMV-polymerase = CMV-polymerase (Human cytomegalovirus (strain AD169) (HHV-5) (Human herpesvirus 5), UniProt P08546); experiment: biochemical
CMV = experiment: microbe, parasite or virus in culture; format: cell-based; settings: Human betaherpesvirus 5, 72 h, read-out: CMV-Luc Cellular EC50, NN-NHDF cells, MOI 1, 72 hrs
[1] = read-out: CMV-polymerase Biochemical IC50
[2] = CMV-polymerase Biochemical IC50

SMILES	IC50 (HSV-polymerase) [nM]	IC50 (CMV-polymerase; [1]) [nM]	IC50 (CMV-polymerase; [2]) [nM]	EC50 (CMV) [nM]
Cn1nc(C(=O)NCc2ccc(C#N)cc2)c2c1C(=O)N(CC1(S(=O)(=O)C(C)(C)COC(F)CN)CC1)CC2 (single isomer, unassigned) [Example 82, (R)- or (S)-6-((1-((1-(2-amino-1-fluoroethoxy)-2-methylpropan-2-yl)sulfonyl)cyclopropyl)methyl)-N-(4-cyanobenzyl)-1-methyl-7-oxo-4,5,6,7-tetrahydro-1H-pyrazolo[3,4-c]pyridine-3-carboxamide]	82	2	–	–
Cn1nc(C(=O)NCc2ccc(C#N)cc2)c2c1C(=O)N(CC1(S(=O)(=O)C(C)(C)C(O)C(C)(C)N)CC1)CC2 (single isomer, unassigned) [Example 211, (R)- or (S)-6-((1-((4-Amino-3-hydroxy-2,4-dimethylpentan-2-yl)sulfonyl)cyclopropyl)methyl)-N-(4-cyanobenzyl)-1-methyl-7-oxo-4,5,6,7-tetrahydro-1H-pyrazolo[3,4-c]pyridine-3-carboxamide]	77	–	9	–
Cn1nc(C(=O)NCc2ccc(C#N)cc2)c2c1C(=O)N(CC1(S(=O)(=O)N3CC(O)C3)CC1)CC2 [Example 128, N-(4-Cyanobenzyl)-6-((1-((3-hydroxyazetidin-1-yl)sulfonyl)cyclopropyl)methyl)-1-methyl-7-oxo-4,5,6,7-tetrahydro-1H-pyrazolo[3,4-c]pyridine-3-carboxamide]	137	–	5	94
Cn1nc(C(=O)NCc2ccc(F)cc2)c2c1C(=O)N(CC1(S(=O)(=O)C(C)(C)COCCN)CC1)CC2 [Example 94, 6-((1-((1-(2-aminoethoxy)-2-methylpropan-2-yl)sulfonyl)cyclopropyl)methyl)-N-(4-fluorobenzyl)-1-methyl-7-oxo-4,5,6,7-tetrahydro-1H-pyrazolo[3,4-c]pyridine-3-carboxamide]	54	9	–	22
Cn1nc(C(=O)NCc2ccc(C#N)cc2)c2ccn(CC3(S(=O)(=O)C4CC4)CC3)c(=O)c21 [Example 1, N-(4-cyanobenzyl)-6-((1-(cyclopropylsulfonyl)cyclopropyl)methyl)-1-methyl-7-oxo-6,7-dihydro-1H-pyrazolo[3,4-c]pyridine-3-carboxamide]	269	10	–	124
CC(O)Cn1nc(C(=O)NCc2ccc(C#N)cc2)c2c1C(=O)N(CC1(S(=O)(=O)C3CC3)CC1)CC2 (single isomer, unassigned) [Example 226, (R)- or (S)-N-(4-cyanobenzyl)-6-((1-(cyclopropylsulfonyl)cyclopropyl)methyl)-1-(2-hydroxypropyl)-7-oxo-4,5,6,7-tetrahydro-1H-pyrazolo[3,4-c]pyridine-3-carboxamide]	101	–	2	–
CC(O)CC(C)(C)S(=O)(=O)C1(CN2CCc3c(C(=O)NCc4ccc(C#N)cc4)nn(C)c3C2=O)CC1 (single isomer, unassigned) [Example 116, (R)- or (S)-N-(4-Cyanobenzyl)-6-((1-((4-hydroxy-2-methylpentan-2-yl)sulfonyl)cyclopropyl)methyl)-1-methyl-7-oxo-4,5,6,7-tetrahydro-1H-pyrazolo[3,4-c]pyridine-3-carboxamide]	48	–	2	–
COCC(C)(CO)S(=O)(=O)C1(CN2CCc3c(C(=O)NCc4ccc(C#N)cc4)nn(C)c3C2=O)CC1 (single isomer, unassigned) [Example 182, (R)- or (S)-N-(4-Cyanobenzyl)-6-((1-((1-hydroxy-3-methoxy-2-methylpropan-2-yl)sulfonyl)cyclopropyl)methyl)-1-methyl-7-oxo-4,5,6,7-tetrahydro-1H-pyrazolo[3,4-c]pyridine-3-carboxamide]	46	–	2	–
CC1Cc2c(C(=O)NCc3ccc(C#N)cc3)nn(C)c2C(=O)N1CC1(S(C)(=O)=O)CC1 (single isomer, unassigned) [Example 42, (R)- or (S)-N-(4-cyanobenzyl)-1,5-dimethyl-6-((1-(methylsulfonyl)cyclopropyl)methyl)-7-oxo-4,5,6,7-tetrahydro-1H-pyrazolo[3,4-c]pyridine-3-carboxamide]	2000	–	149	–
CC(O)COCC(C)(C)S(=O)(=O)C1(CN2CCc3c(C(=O)NCc4ccc(C#N)cc4)nn(C)c3C2=O)CC1 (single isomer, unassigned) [Example 91, (R)- or (S)-N-(4-Cyanobenzyl)-6-((1-((1-(2-hydroxypropoxy)-2-methylpropan-2-yl)sulfonyl)cyclopropyl)methyl)-1-methyl-7-oxo-4,5,6,7-tetrahydro-1H-pyrazolo[3,4-c]pyridine-3-carboxamide]	69	–	5	–
Cn1nc(C(=O)NCc2ccc(C#N)cc2)c2c1C(=O)N(CC1(S(=O)(=O)C3(C(O)CO)CC3)CC1)CC2 (single isomer, unassigned) [Example 195, (R)- or (S)-N-(4-Cyanobenzyl)-6-((1-((1-(1,2-dihydroxyethyl)cyclopropyl)sulfonyl)cyclopropyl)methyl)-1-methyl-7-oxo-4,5,6,7-tetrahydro-1H-pyrazolo[3,4-c]pyridine-3-carboxamide]	23	–	–	–
CC1=NOC(C(C)(C)S(=O)(=O)C2(CN3CCc4c(C(=O)NCc5ccc(C#N)cc5)nn(C)c4C3=O)CC2)C1 (single isomer, unassigned) [Example 112, (R)- or (S)-N-(4-Cyanobenzyl)-1-methyl-6-((1-((2-(3-methyl-4,5-dihydroisoxazol-5-yl)propan-2-yl)sulfonyl)cyclopropyl)methyl)-7-oxo-4,5,6,7-tetrahydro-1H-pyrazolo[3,4-c]pyridine-3-carboxamide]	89	2	–	–
CC1=NOC(C(C)(C)S(=O)(=O)C2(CN3CCc4c(C(=O)NCc5ccc(C#N)cc5)nn(C)c4C3=O)CC2)C1 (single isomer, unassigned) [Example 111, (R)- or (S)-N-(4-Cyanobenzyl)-1-methyl-6-((1-((2-(3-methyl-4,5-dihydroisoxazol-5-yl)propan-2-yl)sulfonyl)cyclopropyl)methyl)-7-oxo-4,5,6,7-tetrahydro-1H-pyrazolo[3,4-c]pyridine-3-carboxamide]	148	5	–	–
Cn1nc(C(=O)NCc2ccc(C#N)cc2)c2c1C(=O)N(CC1(S(=O)(=O)C(C)(C)C(O)C(C)(C)N)CC1)CC2 (single isomer, unassigned) [Example 212, (R)- or (S)-6-((1-((4-Amino-3-hydroxy-2,4-dimethylpentan-2-yl)sulfonyl)cyclopropyl)methyl)-N-(4-cyanobenzyl)-1-methyl-7-oxo-4,5,6,7-tetrahydro-1H-pyrazolo[3,4-c]pyridine-3-carboxamide]	39	–	3	–
Cn1nc(C(=O)NCc2ccc(C#N)cc2)c2c1C(=O)N(CC1(S(=O)(=O)C(C)(C)COC(F)CN)CC1)CC2 (single isomer, unassigned) [Example 83, (R)- or (S)-6-((1-((1-(2-Amino-1-fluoroethoxy)-2-methylpropan-2-yl)sulfonyl)cyclopropyl)methyl)-N-(4-cyanobenzyl)-1-methyl-7-oxo-4,5,6,7-tetrahydro-1H-pyrazolo[3,4-c]pyridine-3-carboxamide]	71	1	–	–
Cn1nc(C(=O)NCc2ccc(C#N)cc2)c2c1C(=O)N(CC1(S(=O)(=O)C(C)(C)COC(F)CO)CC1)CC2 (single isomer, unassigned) [Example 81, (R)- or (S)-N-(4-cyanobenzyl)-6-((1-((1-(1-fluoro-2-hydroxyethoxy)-2-methylpropan-2-yl)sulfonyl)cyclopropyl)methyl)-1-methyl-7-oxo-4,5,6,7-tetrahydro-1H-pyrazolo[3,4-c]pyridine-3-carboxamide]	46	–	3	–
COc1cccnc1NS(=O)(=O)C1(CN2CCc3c(C(=O)NCc4ccc(C#N)cc4)nn(C)c3C2=O)CC1 [Example 159, N-(4-Cyanobenzyl)-6-((1-(N-(3-methoxypyridin-2-yl)sulfamoyl)cyclopropyl)methyl)-1-methyl-7-oxo-4,5,6,7-tetrahydro-1H-pyrazolo[3,4-c]pyridine-3-carboxamide]	–	13	–	298
Cn1nc(C(=O)NCc2ccc(C#N)cc2)c2c1C(=O)N(CC1(S(=O)(=O)N3CCNCC3)CC1)CC2 [Example 133, N-(4-Cyanobenzyl)-1-methyl-7-oxo-6-((1-(piperazin-1-ylsulfonyl)cyclopropyl)methyl)-4,5,6,7-tetrahydro-1H-pyrazolo[3,4-c]pyridine-3-carboxamide]	–	20	–	97
CCS(=O)(=O)C1(CN2CCc3c(C(=O)NCc4ccc(C#N)cc4)nn(C)c3C2=O)CC1 [Example 20, N-(4-Cyanobenzyl)-6-((1-(ethylsulfonyl)cyclopropyl)methyl)-1-methyl-7-ox0-4,5,6,7-tetrahydro-1 H-pyrazolo[3,4-c]pyridine-3-carboxamide]	–	6	–	106
Cn1nc(C(=O)NCc2ccc(C#N)cc2)c2c1C(=O)N(CC1(S(=O)(=O)N3CC[C@H](O)C3)CC1)CC2 [Example 127, (S)-N-(4-Cyanobenzyl)-6-((1-((3-hydroxypyrrolidin-1-yl)sulfonyl)cyclopropyl)methyl)-1-methyl-7-oxo-4,5,6,7-tetrahydro-1H-pyrazolo[3,4-c]pyridine-3-carboxamide]	–	4	–	122
CC(C)(CO)S(=O)(=O)C1(CN2CCc3c(C(=O)NCc4ccc(C#N)cc4)nn(CCO)c3C2=O)CC1 [Example 220, N-(4-Cyanobenzyl)-6-((1-((1-hydroxy-2-methylpropan-2-yl)sulfonyl)cyclopropyl)methyl)-1-(2-hydroxyethyl)-7-oxo-4,5,6,7-tetrahydro-1H-pyrazolo[3,4-c]pyridine-3-carboxamide]	–	1	–	49
